Experimental data published in paper PMC8426472 (Molecular Therapy. Methods & Clinical Development, 2021).

Assays:
ORM1F1 = conditions: cited from earlier work
GS-GDNF vector = experiment: Striatal GDNF induction from AAV-5-GS-GDNF vector after Mfp application; type: in vivo, rat
[1] = cited from earlier work
[2] = Plasma Mfp levels in cynomolgus monkeys; type: in vivo, cynomolgus macaques (Macaca fascicularis)
[3] = Plasma Mfp levels in rats; type: in vivo, rat
[4] = Brain tissue Mfp levels in rats; type: in vivo, rat; conditions: 3 × 20 mg/kg i.p., t = 144 h
[5] = Brain Mfp levels in cynomolgus monkeys; type: in vivo, cynomolgus macaques (Macaca fascicularis); conditions: monkey #1 versus monkeys #2 and #3, repeated oral Rtv 60 mg/kg + Mfp 100 mg/kg
[6] = cited from earlier work; remark: listed apart in the source
[7] = cited from earlier work; remark: listed apart in the source
ORM1S = conditions: cited from earlier work
[8] = system: ORM2-derived AAG variants; conditions: cited from earlier work
[9] = cited from earlier work; remark: listed apart in the source
ORM1F2 = conditions: cited from earlier work
[10] = Plasma Mfp levels in hAAG-expressing; type: in vivo, rat
[11] = cited from earlier work; remark: listed apart in the source

For `CC#C[C@]1(O)CC[C@H]2[C@@H]3CCC4=CC(=O)CCC4=C3[C@@H](c3ccc(N(C)C)cc3)C[C@@]21C` [Mfp, mifepristone], the “binding of Mfp by ORM1F1” value (ORM1F1) is given as “high affinity”, the “effect of hAAG on GS-GDNF activation at lower dosage” value (GS-GDNF vector; 3 × 5 mg/kg Mfp i.p., hAAG-expressing vs native rats) is given as “no negative effect” and the “striatal GDNF levels in hAAG-expressing vs native animals” value (GS-GDNF vector; 3 × 20 mg/kg Mfp i.p.) is given as “similar”. The “induced GDNF levels in aged (15 months) as compared to young (2 months) animals” value (GS-GDNF vector; female and male rats, 3 × 20 mg/kg Mfp i.p.) was 7–8 times, the “striatal GDNF level, only Mfp, females” value (GS-GDNF vector; female rats, 3 x 5 mg/kg Mfp i.p., no Rtv) was “about 350 pg/mg” and the “striatal GDNF level without Rtv co-application” value (GS-GDNF vector; female rats, 3 x 20 mg/kg Mfp i.p.) was “about 2,000 pg/mg tissue”. For the same compound, the “striatal GDNF level after co-application of Rtv” value (GS-GDNF vector; female rats, 3 x 20 mg/kg Mfp i.p., Rtv 30 mg/kg i.p. or orally) was “about 4,000 pg/mg tissue”, the “GDNF levels obtained with different solvent/carrier” value (GS-GDNF vector; female rats, oral 3 x 50 mg/kg pure substance in EtOH, sesame oil or ASV) was “very similar” and the “striatal GDNF level, Mfp + Rtv” value (GS-GDNF vector; male and female rats, 3 x 5 mg/kg Mfp i.p. + Rtv 30 mg/kg i.p.) was “about 4,000 pg/mg tissue”. The “striatal GDNF level, only Mfp, males” value (GS-GDNF vector; male rats, 3 x 5 mg/kg Mfp i.p., no Rtv) was “about 100 pg/mg”, the bioavailability in monkeys [1] was 15% and the “peak plasma Mfp level without Rtv” value ([2]; male cynomolgus monkeys, single oral 50 mg/kg Mfp) was 55 ng/mL. For the same compound, the “peak plasma Mfp level with Rtv co-application” value ([2]; male cynomolgus monkeys, single oral 50 mg/kg Mfp + 30 mg/kg Rtv) was 150 ng/mL, the AUC ([2]; male, cynomolgus monkey, plasma, po, 50 mg/kg) was 655 ng·h/mL and the “plasma Mfp levels on all 3 days” value ([2]; monkeys #2 and #3, oral Mfp 100 mg/kg + Rtv 60 mg/kg on 3 consecutive days) was “exceeding 500 ng/mL”. For the same compound, the AUC ([3]; female, Wistar, rat, plasma, ip, AUC for plasma Mfp, − Rtv, female rats, 3 x 5 mg/kg Mfp i.p., without Rtv) was 8200 ng·h/mL, the “drop of plasma Mfp levels at 48 h, native rats” value ([3]; native rats, single oral dose 50 mg/kg) was “over 80%” and the peak plasma levels ([3]; rats, 3 × 5 mg/kg Mfp i.p.) was “about 150 ng/mL”. The “peak plasma levels, corresponding molar concentration” value ([3]; rats, 3 × 5 mg/kg Mfp i.p.) was “about 0.3 μM”, the “Mfp levels in brain tissue, native vs hAAG-expressing animals” value [4] was “equal” and the “difference in brain Mfp levels after the same dosage” value [5] was 6- to 7 fold. The bioavailability in humans [6] was 40%, the clearance in human [6] was 0.04 L/h/kg body weight and the “plasma half-life (T1/2) in human” value [6] was 30 h. For the same compound, the bioavailability in rats [7] was 40%, the clearance in rats [7] was 2.7 L/h/kg body weight and the “plasma half-life (T1/2) in rats” value [7] was 4 h. The “binding of Mfp by ORM1S” value (ORM1S) was “high affinity”, the “binding of Mfp by ORM2-derived AAG variants” value [8] was “only weakly” and the solubility in water [9] was “very low”. For the same compound, the “binding of Mfp by ORM1F2” value (ORM1F2) was “only low affinity”, the “plasma Mfp levels in hAAG-expressing vs native animals at 50 h and 72 h” value ([10]; 3 × 20 mg/kg Mfp i.p.) was “significantly elevated” and the “plasma Mfp level at 48 h, hAAG-expressing rats” value ([10]; single oral dose 50 mg/kg) was “still at maximum level”. For the same compound, the “plasma Mfp level at 72 h, hAAG-expressing rats” value ([10]; single oral dose 50 mg/kg) was “about one-third of maximum levels”.

For `CC(C)c1nc(CN(C)C(=O)N[C@H](C(=O)N[C@@H](Cc2ccccc2)C[C@H](O)[C@H](Cc2ccccc2)NC(=O)OCc2cncs2)C(C)C)cs1` [Rtv, ritonavir], the “metabolic effects: insulin resistance” value [11] is listed as “moderate increase”, the “boost of GDNF induction by Rtv, female rats” value (GS-GDNF vector; female rats, Rtv 30 mg/kg i.p. + 3 x 5 mg/kg Mfp i.p.) is listed as “about 10 fold” and the “boost of GDNF induction by Rtv, male rats” value (GS-GDNF vector; male rats, Rtv 30 mg/kg i.p. + 3 x 5 mg/kg Mfp i.p.) is listed as “about 40 fold”.
